Assay in all cases: NCI-60 cell line screen, 48 h
Test [1] relates to HCC-2998 colon.
Test [2] deals with EKVX NSCLC.
Test [3] has as its system HCT-116 colon.
The subject of test [4] is SK-OV-3 ovarian.
Test [5] deals with HT29 colon.
Test [6] has as its system HOP-62 NSCLC.
Test [7] relates to SW-620 colon.
Test [8] has as its system M14 melanoma.
The subject of test [9] is MDA-MB-435.
Test [10] relates to SF-268 CNS.

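Following 48 hours of exposure in 96-well plates, responses at five concentrations were used to interpolate endpoints linearly. Here, GI50 denotes the concentration required for 50% inhibition of growth. Definition used: TGI = concentration required for complete inhibition of growth.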

On to `Cn1nnc2c(C(N)=O)ncn2c1=O`, for which the TGI in test [1] was greater than 100000 nM; in [2], greater than 100000 nM; in test [3], greater than 100000 nM; in [4] it was 100000 nM; in [5], greater than 100000 nM; in [6], greater than 100000 nM. In addition, the TGI in test [7], in test [8], in test [9] and in test [10] was greater than 100000 nM each time.
As for `COc1cc(/C=C/[N+](=O)[O-])cc(OC)c1OC`, the GI50 was 1820 nM in test [1]; 13600 nM in test [2]; 1890 nM in test [3]; 4790 nM in [4]; 2200 nM in test [5]; 3340 nM in test [6]. The GI50 in test [7] is 1710 nM; in test [8], 2070 nM; in test [9] it was 2800 nM; in test [10], 4390 nM. Moreover, the TGI in test [1] worked out at 3310 nM; in [2], 28400 nM; in [3] it was 3560 nM; in [4], 16100 nM; in [5] it was 4810 nM; in [6] it was 13600 nM. Further, the TGI turned out to be 4160 nM in [7], 4310 nM in [8], 10200 nM in test [9] and 15200 nM in [10].
Take `CCN(C(=O)CN1CCN(c2cc3c(cc2F)c(=O)c(C(=O)O)cn3CC)CC1)c1nc(-c2ccccc2)cs1`: the GI50 in [1] is 402 nM; in [2], 372 nM; in test [3] it was 378 nM; in [5], 301 nM; in test [6], 345 nM; in test [7] it was 412 nM. Moreover, the GI50 in [8] is 363 nM; in test [9], 306 nM; in test [10], 430 nM. Moreover, the TGI in test [1], in [2], in test [3], in test [5], in test [6] and in test [7] was greater than 100000 nM each time. Further, the TGI in [8], in [9] and in test [10] was greater than 100000 nM throughout.
Regarding `Cc1cccc2c(Nc3ccc(NS(C)(=O)=O)cc3)c3ccc([N+](=O)[O-])cc3nc12`, the GI50 is 1490 nM in test [1]; 927 nM in test [3]; 2400 nM in test [4]; 1590 nM in [5]; 373 nM in test [6]; 870 nM in [7]. The GI50 is 808 nM in [8], 1850 nM in test [9] and 355 nM in [10]. The TGI is 3110 nM in [1]; 5240 nM in test [3]; 17100 nM in test [4]; 3470 nM in test [5]; 4870 nM in test [6]; 3230 nM in test [7]. For the same compound, the TGI in test [8] stood at 3400 nM; in [9], 7270 nM; in test [10], 4380 nM.
`Cc1ccc(Sc2oc(-c3ccc(C)cc3)nc2[P+](c2ccccc2)(c2ccccc2)c2ccccc2)cc1`: the GI50 in test [1] is 399 nM; in [2] it was 296 nM; in test [3], 260 nM; in test [4] it was 270 nM; in test [5], 294 nM; in test [7], 338 nM. The GI50 in [8] was 403 nM; in [9], 336 nM; in test [10] it was 399 nM. Further, the TGI in test [1] came to 1570 nM; in test [2], 1260 nM; in [3] it was 1260 nM; in [4] it was 1100 nM; in test [5], 1150 nM; in test [7] it was 1320 nM. Also, the figures for the TGI in test [8], in test [9] and in test [10] were 1570 nM, 1200 nM and 1660 nM, respectively.
Consider `COc1cc(C2CC(=O)Nc3c2cc(Br)c2ccccc32)cc(Br)c1OC` (configuration not stated), for which the GI50 in test [1] was 4530 nM; in test [3] it was 602 nM; in test [4], 1760 nM; in test [5], 514 nM; in test [6], 1450 nM; in test [7], 530 nM. The GI50 is 1080 nM in test [8], 247 nM in test [9] and 4630 nM in [10]. Also, the TGI in test [1] is greater than 100000 nM; in test [3] it was 2440 nM; in [4], 3350 nM; in test [5] it was 4210 nM; in test [6], 3900 nM; in test [7], greater than 100000 nM. The TGI in [8] was greater than 100000 nM; in test [9] it was 864 nM; in [10] it was greater than 100000 nM.
Regarding `CCOC(=O)C1=C(C)N2C(=NC3=C(CCC/C3=C\c3ccc(Cl)cc3)C2c2ccc(Cl)cc2)S1` (configuration not stated), the GI50 in [1] is 1790 nM; in test [2], 3370 nM; in [3], 1400 nM; in test [4], 6680 nM; in test [5], 2350 nM; in test [6] it was 2550 nM. For the same compound, the figures for the GI50 in test [7], in test [9] and in test [10] were 2440 nM, 2930 nM and 3240 nM, respectively. Further, the TGI is 3190 nM in [1]; 46800 nM in test [2]; 2700 nM in [3]; greater than 100000 nM in [4]; 5920 nM in test [5]; 5380 nM in test [6]. For the same compound, the TGI stood at 6390 nM in [7], 14200 nM in [9] and 30400 nM in test [10].
Consider `Nc1cc2cccc[n+]2c2cccc(Cl)c12`, for which the GI50 in [1] is 11400 nM; in [2] it was 32100 nM; in test [3], 36900 nM; in [5] it was 56200 nM; in test [7], 34200 nM; in test [8], 36400 nM. The GI50 in [9] was 25800 nM; in test [10], 4940 nM. In addition, the figures for the TGI in test [1], in [9] and in test [10] were 32400 nM, 72200 nM and 35600 nM, respectively.
For the compound `COc1ccc2c(c1)C(=O)c1c-2n(CCCN)c(=O)c2cc([N+](=O)[O-])ccc12`, the GI50 in test [2], in test [3], in test [4], in test [6], in test [7] and in [8] was less than 10 nM throughout. In addition, the GI50 in test [9] was 3300 nM; in test [10] it was less than 10 nM. Also, the TGI in test [2] is 2310 nM; in test [3], 11.9 nM; in test [4] it was less than 10 nM; in test [6], 23.4 nM; in test [7], 146 nM; in [8] it was less than 10 nM. For the same compound, the TGI in test [9] was 19500 nM; in [10] it was less than 10 nM.
